Source: PubChem BioAssay (NCI)
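Assay format: 96-well plates, 48-hour exposure. At the TGI there is no net growth.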

Assays:
Test in all cases: NCI-60 cell line screen, 48 h
A549 NSCLC = tested on: A549 NSCLC
CAKI-1 renal = tested on: CAKI-1 renal
EKVX NSCLC = tested on: EKVX NSCLC
HT29 colon = tested on: HT29 colon
K-562 leukemia = tested on: K-562 leukemia
M14 melanoma = tested on: M14 melanoma
MCF7 breast = tested on: MCF7 breast
NCI/ADR-RES ovarian = tested on: NCI/ADR-RES ovarian
OVCAR-4 ovarian = tested on: OVCAR-4 ovarian
OVCAR-5 ovarian = tested on: OVCAR-5 ovarian
OVCAR-8 ovarian = tested on: OVCAR-8 ovarian
RXF 393 renal = tested on: RXF 393 renal
SF-295 CNS = tested on: SF-295 CNS
UO-31 renal = tested on: UO-31 renal
KM12 colon = tested on: KM12 colon
NCI-H23 lung = tested on: NCI-H23 lung
NCI-H460 lung = tested on: NCI-H460 lung
SK-MEL-2 melanoma = tested on: SK-MEL-2 melanoma
SK-MEL-28 melanoma = tested on: SK-MEL-28 melanoma
SF-539 CNS = tested on: SF-539 CNS

| SMILES | TGI (A549 NSCLC) [µM] | TGI (CAKI-1 renal) [µM] | TGI (EKVX NSCLC) [µM] | TGI (HT29 colon) [µM] | TGI (K-562 leukemia) [µM] | TGI (M14 melanoma) [µM] | TGI (MCF7 breast) [µM] | TGI (NCI/ADR-RES ovarian) [µM] | TGI (OVCAR-4 ovarian) [µM] | TGI (OVCAR-5 ovarian) [µM] | TGI (OVCAR-8 ovarian) [µM] | TGI (RXF 393 renal) [µM] | TGI (SF-295 CNS) [µM] | TGI (UO-31 renal) [µM] | TGI (KM12 colon) [µM] | TGI (NCI-H23 lung) [µM] | TGI (NCI-H460 lung) [µM] | TGI (SK-MEL-2 melanoma) [µM] | TGI (SK-MEL-28 melanoma) [µM] | TGI (SF-539 CNS) [µM] |
| --- | --- | --- | --- | --- | --- | --- | --- | --- | --- | --- | --- | --- | --- | --- | --- | --- | --- | --- | --- | --- |
| O=[N+]([O-])c1cccc(-c2ccc([C@H]3CC(c4ccc(Cl)cc4)=NN3)o2)c1 | > 100 | 60.5 | > 100 | 56.9 | 55 | > 100 | > 100 | 76.3 | 68.6 | > 100 | 27.4 | 35.2 | 88.5 | 40.9 | – | – | – | – | – | – |
| C[C@@H](NC(=O)Nc1cccc(C(=O)Nc2cc(C(C)(C)C)ccc2C(=O)O)n1)c1ccccc1 | > 100 | > 100 | > 100 | > 100 | > 100 | > 100 | 47.9 | > 100 | > 100 | > 100 | > 100 | 38.5 | 76.2 | > 100 | > 100 | > 100 | > 100 | 39 | > 100 | – |
| CCOC(=O)n1c(=O)nc2c3c(ncn21)Oc1c(c(-c2ccccc2)nn1-c1ccccc1)C3c1ccc(Cl)cc1 (centres undefined) | 3.01 | 2.96 | – | 3.12 | 2.41 | 3.33 | 2.9 | 3.11 | 2.47 | 3.53 | 3.06 | 2.91 | 3.26 | 2.85 | 2.89 | 3.17 | 3.21 | 3.23 | 3.18 | 2.9 |
| CC(C)=CCN1c2ccccc2[C@@]2(CC=C(C)C)CCN(C)[C@@H]12 | > 100 | > 100 | 64.3 | 90.4 | 48.2 | – | 34.4 | 53.5 | > 100 | > 100 | 90.2 | > 100 | 46.6 | 41.8 | > 100 | > 100 | 30.4 | 33.3 | > 100 | 64.9 |
| COC(=O)c1c(O)ccc2c1c1c(n2CCc2ccccc2)C(=O)c2ccccc2C1 | > 100 | 45.6 | – | 70.4 | > 100 | 55.2 | 42.5 | 53.1 | 41.4 | – | > 100 | 31.3 | – | 49.7 | > 100 | 74.1 | 48.3 | 40.5 | 53.8 | 45.2 |
| O=C(O)c1ccc2nc(-c3ccccn3)c(-c3ccccn3)nc2c1 | – | > 100 | > 100 | > 100 | > 100 | > 100 | > 100 | > 100 | > 100 | – | > 100 | > 100 | > 100 | > 100 | > 100 | > 100 | > 100 | > 100 | > 100 | > 100 |
| C=C1C(=O)O[C@H]2[C@@H]3O[C@@](C)(CC/C=C(\C)CCC[C@@H]2C)[C@H](O)C[C@@H]13 | 24.9 | 4.53 | > 100 | 3.94 | > 100 | 5.86 | 15.6 | 7.62 | 34.8 | 31.2 | 17.1 | 84.3 | 27.8 | 11.9 | 26.2 | 2.96 | – | 27 | 38.8 | 5.6 |
| CC(C(=O)NCNC(=O)c1ccccc1)C(=O)NCc1ccccc1 (centres undefined) | > 100 | > 100 | > 100 | > 100 | – | > 100 | > 100 | > 100 | – | > 100 | > 100 | > 100 | > 100 | > 100 | > 100 | > 100 | > 100 | > 100 | – | > 100 |
| CC(=O)Nc1ccc2c3c(cc(O)c2c1)N(C(=O)CCCCCCC(=O)Nc1ccc2c4c(cc(O)c2c1)N(C(=O)OC(C)(C)C)CC4CCl)CC3CCl (centres undefined) | > 32.3 | 17.2 | 1.08 | – | > 100 | 0.374 | 0.739 | > 72 | 3.98 | 0.663 | > 32.9 | 0.0392 | 0.957 | 3.35 | 0.804 | 0.346 | 0.245 | 0.0593 | – | 0.396 |
| O=[N+]([O-])c1ccc(-c2ccc([C@H]3CC(c4cc(F)c(Cl)cc4Cl)=NN3)o2)cc1 | – | > 100 | > 100 | > 100 | > 100 | > 100 | > 100 | 90.2 | > 100 | > 100 | > 100 | > 100 | > 100 | > 100 | > 100 | 32.9 | > 100 | – | – | 30.1 |
| Cn1c2ccccc2n2c3ccccc3c3nnc(N)c-3c12 | > 100 | > 100 | > 100 | > 100 | > 100 | > 100 | > 74.7 | > 100 | > 100 | > 100 | > 100 | > 87.6 | > 100 | > 100 | > 100 | > 100 | > 100 | > 79.5 | > 100 | – |
| O=C1C/C(=C\c2ccccc2)C(=O)c2ccccc2N1 | 56.9 | 33.1 | 48.5 | 36.5 | – | 44.1 | > 100 | 54.7 | 49.1 | 40.9 | 39.1 | 35.8 | 36.8 | – | 39.5 | 48.1 | 62 | 60.6 | 55.8 | 39.4 |
